Patent US20140314791A1, “METHODS OF TREATING CANCER” (DANA-FARBER CANCER INSTITUTE, INC., priority 2012, published 2014)
Where two headings read alike, the source gives them in different places.

How the values were obtained:
[1] = tested on: Lkb1-null versus Lkb1-wt cell lines; test: Large-scale pooled shRNA library screening (murine 40K pool); format: cell-based, mouse; settings: for Hairpin-rank in pooled shRNA screen: Table 6; for # Hairpins 1000: number of the gene's hairpins ranked within 1000; for # Hairpins 5000: number of the gene's hairpins ranked within 5000; for # Hairpins 10000: number of the gene's hairpins ranked within 10000
[2] = tested on: Lkb1-wt cells; test: Array-based viral infection and cell proliferation assay (validation), Lkb1-wt; set-up: species or system mouse; settings: 5 days post infection, alamarBlue
Experimental: (§1) (C) Validation study. Relative viability of Lkb1-wt and Lkb1-null cells infected with 340 individual hairpins for 5 days. Genes of interest are highlighted by the colors indicated.
(§2) For array-based viral infection and assessment of proliferation, 2.5 μl virus was mixed with 250 cells in 100 μl medium containing 8 μg/ml polybrene per well in 96-well plates. The plates were spun at 2250 rpm/37° C. for 30 min. Immediately after spinning, supernatants were gently aspirated off and 100 μl fresh medium was added to each well of the 96-well plates. After 2 days incubation, medium was gently aspirated off and 100 fresh medium containing 3 μg/ml puromycin was added to each well of the 96-well plates. The plates were back to culture for additional 3 days and then the viable cells were monitored by alamarBlue (Invitrogen) assay according to manufacturer's instructions.
(§3) To identify Lkb1-null-selective essential genes, a synthetic lethal screen was performed using a pooled 40K murine shRNA lentiviral library for each of the Lkb1-wt and Lkb1-null cell lines described above. Relative abundance of shRNAs in each cell line sample was determined by deep-sequencing analysis, and for every shRNA, a log 2 Fold Change (log 2FC) value was calculated from the difference in relative abundance at a late time point after infection versus the initial shRNA-infected sample. An unsupervised hierarchical clustering analysis of the ranked hairpins from the triplicate pooled shRNA library screens of Lkb1-wt and Lkb1-null mouse cancer cells is shown in FIG. 1A. […] The ranked hairpins were collapsed by using two methods, a RIGER analysis (KS t-test based statistics) and a weighted second best analysis to rank genes that selectively impaired proliferation/viability in Lkb1-null cells. A union of 344 genes, identified by the top 100 individual hairpins for 88 genes (Table 1) and the top 200 genes from both the KS (Table 2) and weighted second best (Table 3), was nominated as the initial prioritized list (FIG. 1B). 340 shRNAs, targeting 70 candidate genes from this prioritized list, were chosen for validation (Table 4). The 70 genes consisted of the top 10 candidates from the KS analysis, as well as 60 others involved in a range of biological processes in an attempt to represent all biological categories in the validation process. Validation was performed in an array format with an assay of relatively short duration (5 days post infection) compared to the primary pooled screen (28 days), which should be a more stringent selection, as it required the anti-proliferative effects to manifest in a short time period. […] Dtymk, Check1, and Pdhb are the top 3 candidate genes, each with 3 hairpins that scored in the validation assay (FIG. 1C).

[3] = tested on: Lkb1-null cells; test: Array-based viral infection and cell proliferation assay (validation), Lkb1-null; set-up: species or system mouse; settings: for Growth of Lkb1-wt/Lkb1-null in array-based validation: Table 6; for Null ave-GR: validation, 5 days post infection, alamarBlue
Experimental: as §1, §2, §3

[4] = tested on: Chek1; settings: Lkb1-wt 634 cells, normalized to shGFP
[5] = tested on: Dtymk; test: QPCR analysis of Dtymk knockdown in Lkb1-wt 634 cells; settings: normalized to shGFP
[6] = tested on: Lkb1-null (t2, t4, and t5) cells; test: Cell proliferation assay with CHEK1 inhibitors (CCK-8), Lkb1-null; format: cell-based, mouse; settings: for GI50: read-out: 50% growth inhibition (GI50) concentration
[7] = tested on: Lkb1-wt (634, 855, and 857) cells; test: Cell proliferation assay with CHEK1 inhibitors (CCK-8), Lkb1-wt; format: cell-based, mouse; settings: read-out: 50% growth inhibition (GI50) concentration
[8] = tested on: γH2AX; test: Western blot analysis of γH2AX after CHEK1 inhibitor treatment; format: cell-based; settings: 3 h at the GI50 concentration
[9] = tested on: Lkb1-null t2, t4, and t5 cells; test: dTTP rescue of shDtymk growth phenotype; format: cell-based, mouse; settings: 150 μM dTTP
Experimental: (B) Morphology of Lkb1-null t2, t4, and t5 cells transduced with shGFP or shDtymk-1 and then cultured with or without additional 150 μM dTTP in medium for 3 days.
(§4) Next it was determined whether adding dTTP to the media could rescue cell death after Dtymk knockdown. Three Lkb1-null cell lines were transduced with shGFP or shDtymk-1 and then selectively cultured in puromycin medium in the presence or absence of 150 μM dTTP for 3 days (Taricani et al., 2010). […] Expression of DTYMK in the shDtymk-1 cells was not determined because the remaining cells were too few for RNA and protein extraction (FIG. 4B).

[10] = tested on: Lkb1-wt and Lkb1-null cells; test: 3H-dTTP incorporation into genomic DNA; format: cell-based, mouse; settings: 0.25 μCi 3H-dTTP, 6 h
Experimental: Lkb1-wt and Lkb1-null cells were plated into 96 well plates with 4000 cells/well in 100 μL medium for overnight culturing then incubated with 0.25 μCi ^3H-dTTP (Perkin Elmer, NET221H250UC) for 6 h and used 0.25 μCi ^3H-deoxythymidine (Perkin Elmer, NET221H250UC) as positive and 0.25 μCi^3H-dTTP/non-cells (medium alone) as negative controls. Cells were washed with PBS, trypsinized, and DNA was captured with a cell harvester on glass fiber filters Filtermat A (Perkin Elmer, #1450-421), which was then placed into a liquid scintillation counting container for counting on a scintillation beta-counter. The data represent mean±SD for 6 replicates.
as §4

[11] = tested on: Lkb1-wt (634, 855, and 857) and Lkb1-null (t2, t4, and t5) cells; test: Proliferation assay of shRNA-transduced cells (CellTiter-Glo); format: cell-based, mouse; settings: in vitro, puromycin 3 μg/ml
Experimental: Viable cells were measured daily using Promega's CellTiter-Glo Assay. Two independent sets of transductions into the 6 cell lines were shown: the first set used shGFP, shDtymk-1, and shChek1-4 (upper panels), and the second set used shGFP, shDtymk-3, and shChek1-1 (lower panels).
Lentiviral production and target cell transduction were performed according to previously description (Moffat et al., 2006). Briefly, 293T cells were co-transfected with pLenti-vector, pCMV-dR8.74psPAX2, and pMD2.G using TransIT-LT1 transfection reagent (Mirus). Thirty-six h after transfection, the supernatant was harvested and spun at 3000 rpm/4° C. for 10 min, and then incubated with target cells in the presence of 8 μg/ml polybrene (Sigma) for 24 h. Two days after infection, the cells were collected for further analysis as indicated in the presence of 3 μg/ml Puromycin (Invitrogen).
Cells were plated into 96-well plates at 2000 cells per well in 100 μl, with addition of puromycin at 3 μg/ml for shRNA lentivirus infected cells, or with addition of variable doses of drug for drug treatment effects. Viable cells were measured daily or for a period of up to 3 days either by CellTiter-Glo Luminescent Cell Viability Assay (Promega) or by Cell Counting Kit-8 (CCK-8) (Dojindo) according to the manufacturer's instructions. All proliferation assays were performed in triplicate wells.
Depletion of DTYMK and CHEK1 was confirmed by Western blot (FIG. 11B).

[12] = tested on: Lkb1-wt (634 and 857) and Lkb1-null (t2 and t4) tumors; test: Tumor development of shRNA-transduced cells implanted into athymic nude mice; format: in vivo; settings: doxycycline treatment for 3 weeks
Experimental: (C) 1×10^6 Lkb1-wt (634 and 857) and Lkb1-null (t2 and t4) cells transduced with the indicated shRNA were implanted into athymic nude mice for 3 weeks. Tumor volume (mm^3) was calculated as […]. The data represent mean±SD for 4 mice. Lkb1-wt 634 and Lkb1-null t4 tumors with the indicated shRNAs were shown (D).
To investigate whether reduced expression of Dtymk or Chek1 inhibited tumor development in vivo, Lkb1-wt (634 and 857) and Lkb1-null (t2 and t4) cells transduced with pTetOn-shGFP, pTetOn-shDtymk-3, or pTetOn-shChek1-4 were implanted into athymic nude mice.

[13] = gene-level KS score over all hairpins of the gene (Table 2, Top 200 genes by KS), only the first hairpin id is printed
[14] = rank of the gene by NES, KS analysis

Compound | Hairpin-rank in pooled shRNA screen [1] | WT ave-GR [2] | Growth of Lkb1-wt/Lkb1-null in array-based validation [3] | Null ave-GR [3] | mRNA remaining (by qPCR) [4] [%] | mRNA remaining (by qPCR) [5] [%] | further results
shChek1-3: shRNA hairpin CCCATGTAGTAGTATCACTTT targeting Mouse Chek1 | 23815 | 0.45 | 1.64 | 0.27 | 42.10 | – | NES [1, 13]: 1.57; NES ([1]; gene-level normalized enrichment score over all hairpins of the gene): 1.520; Gene rank ([1]; gene-level rank by NES): 119; # Hairpins 500 ([1]; number of the gene's hairpins ranked within 500): 1; # Hairpins 1000 [1]: 1; # Hairpins 5000 [1]: 1; # Hairpins 10000 [1]: 1; # HP 500 ([1]; number of the gene's hairpins ranked within top 500): 1; # HP 1000 ([1]; number of the gene's hairpins ranked within top 1000): 1; # HP 5000 ([1]; number of the gene's hairpins ranked within top 5000): 1; # HP 10000 ([1]; number of the gene's hairpins ranked within top 10000): 1; Gene rank [1, 14]: 61
shDtymk-5: shRNA hairpin CAAGACCACGCAGGCCCTCAA targeting Mouse Dtymk (also Human DTYMK) | 5760 | 1.11 | 1.05 | 1.06 | – | 77.90 | NES [1, 13]: 1.53; # Hairpins 1000 [1]: 1; # Hairpins 5000 [1]: 1; # Hairpins 10000 [1]: 2; Gene rank [1, 14]: 103
O=c1[nH]c2ccc(Cl)cc2c(N[C@@H]2CN3CCC2CC3)c1-c1nc2ccccc2[nH]1 [CHIR124] | – | – | – | – | – | – | inhibition of Lkb1-null cells stronger than Lkb1-wt cells ([6]; GI50 Lkb1-wt versus Lkb1-null): 3 fold; GI50 ([6]; Lkb1-null cells, mean, 3 days): 0.019 µM; GI50 ([7]; Lkb1-wt cells, mean, 3 days): 0.056 µM; phosphorylation of H2AX (Western blot) [8]: induced phosphorylation of H2AX
shChek1-2: shRNA hairpin GCCACGAGAATGTAGTGAAAT targeting Mouse Chek1 | 14869 | 1.07 | 1.26 | 0.85 | 43.90 | – | –
shDtymk-2: shRNA hairpin CTTCTCTGCAAACCGCTGGGA targeting Mouse Dtymk | 19621 | 1.21 | 1.18 | 1.03 | – | 66.70 | –
AZD7762 | – | – | – | – | – | – | inhibition of Lkb1-null cells stronger than Lkb1-wt cells [6]: 3 fold; GI50 [6]: 0.09 µM; GI50 [7]: 0.275 µM
Cc1cn([C@H]2C[C@H](O)[C@@H](COP(=O)(O)OP(=O)(O)OP(=O)(O)O)O2)c(=O)[nH]c1=O [dTTP] | – | – | – | – | – | – | toxicity of dTTP to shGFP-transduced cells [9]: not to be toxic; growth of shDtymk-transduced Lkb1-null cells with exogenous dTTP ([9]; 3 days): grew as well as shGFP-transduced cells; passage of radiolabeled dTTP through the cell membrane (incorporation into genomic DNA) [10]: passed through the cell membrane
shChek1-4: shRNA hairpin GTGGAAGAAGAGTTGTATGAA targeting Mouse Chek1 | 26693 | 0.70 | 2.31 | 0.30 | 30.20 | – | cell growth compared to shGFP control, Lkb1-null versus Lkb1-wt [11]: inhibited Lkb1-null cell growth more strongly than the growth of Lkb1-wt cells; tumor growth of Lkb1-null tumors expressing shRNA versus shGFP and Lkb1-wt tumors [12]: grew significantly slower
shChek1-5: shRNA hairpin GCAACGGTATTTCGGCATAAT targeting Mouse Chek1 | 23858 | 1.15 | 1.2 | 0.96 | 40.70 | – | –
shChek1-1: shRNA hairpin GCTGTGAATAGAATAACTGAA targeting Mouse Chek1 | 327 | 1.57 | 2.14 | 0.73 | 35.50 | – | cell growth compared to shGFP control, Lkb1-null versus Lkb1-wt [11]: inhibited Lkb1-null cell growth more strongly than the growth of Lkb1-wt cells
shDtymk-3: shRNA hairpin ACGGAACTAGAGGATCACTCT targeting Mouse Dtymk | 100 | 0.83 | 2.96 | 0.28 | – | 27.80 | Hairpin rank ([1]; Top 100 shRNAs, ranked hairpin list of selectively essential hairpins in Lkb1-null background (log2FC)): 98; cell growth compared to shGFP control, Lkb1-null versus Lkb1-wt [11]: inhibition was stronger in Lkb1-null cells; tumor growth of Lkb1-null tumors expressing shRNA versus shGFP and Lkb1-wt tumors [12]: grew significantly slower
shDtymk-4: shRNA hairpin GAAATCGGCAAGCTTCTGAAT targeting Mouse Dtymk (also Human DTYMK) | 28546 | 0.85 | 1.67 | 0.51 | – | 51.10 | –
